# Assay results taken from US20230089368A1, “POLYAROMATIC UREA DERIVATIVES AND THEIR USE IN THE TREATMENT OF MUSCLE DISEASES” (ANAGENESIS BIOTECHNOLOGIES S.A.S., priority 2019, published 2023).
# Experiments:
# [1] = test system: muscle progenitors (hMP) from DMD hiPSC or WT hiPSC; experiment: Myotube assay: myogenic activity (total myotube area per well); type: cell-based, human; details: Homo sapiens, 72 h, myotube assay, compounds incubated 3 days; for Emax: read-out: MA (normalized Myotube Area, efficacy)
# Outline: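 DMD or WT hiPSC-derived muscle progenitors plated on collagen I in K5 medium with 5 μM Y-27632, treated with compound (1.5 nM–30 μM) for 3 days at 37° C. Cells were fixed, stained for alpha-actinin and imaged for total myotube area per well. EC50 and normalized myotube area (MA) taken from duplicate-averaged data.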
# [2] = test system: satellite-like cells (Pax7-positive cells) in hMP; experiment: Myotube assay: Pax7-positive (satellite-like) cell quantification; type: cell-based, human; design: key to Pax7% (pool of Pax7-positive cells) / Pax7: −: Depletes the pool of cells, while positively affects the myotubes; +: Maintains or increases the pool of cells, with at least 1 of the highest concentration known to be cytotoxic; ++: Maintains or increases the pool of cells, without any toxicity; details: myotube assay, compounds incubated 3 days
# Outline: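 DMD hiPSC-derived muscle progenitors (hMP) proliferated 4 days, then plated on collagen I in K5 medium with 5 μM Y-27632. Compound added at 1.5 nM–30 μM for 3 days at 37° C, then cells fixed and immunostained. Pax7-positive cells counted as percentage of total nuclei, duplicates averaged.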
Structure (SMILES),Emax [1] [%],Pax7% (pool of Pax7-positive cells) [2],"EC50 ([1]; 10 points dose-response 1.5 nM to 30 μM, read-out: EC50 (myogenic activity, half-maximal generation of myotubes)) [µM]"
"CSc1cc(Oc2ccnc(N(CCN(C)C)C(=O)OC(C)(C)C)c2)ccc1NC(=O)Nc1cc(C(C)(C)C)nn1-c1ccccc1 [(ch), Tert-Butyl (4-(4-(3-(3-(tert-butyl)-1-phenyl-1H-pyrazol-5-yl)ureido)-3-(methylthio)phenoxy)pyridin-2-yl)(2-(dimethylamino)ethyl)carbamate]",50 to 75,+,
"CSc1cc(Oc2ccnc3[nH]c(=O)cnc23)ccc1NC(=O)Nc1ncc(C(C)(C)C)s1 [(ah), 1-(5-(tert-butyl)thiazol-2-yl)-3-(2-(methylthio)-4-((3-oxo-3,4-dihydropyrido[2,3-b]pyrazin-8-yl)oxy)phenyl)urea]",≥ 75,++,
"CC(C)(C)c1cc(NC(=O)Nc2cc(F)c(Oc3ccnc4[nH]c(=O)cnc34)cc2F)n(-c2ccccc2)n1 [(bt), 1-(3-(tert-butyl)-1-phenyl-1H-pyrazol-5-yl)-3-(2,5-difluoro-4-((3-oxo-3,4-dihydropyrido[2,3-b]pyrazin-8-yl)oxy)phenyl)urea]",≥ 75,++,
"Cc1cc(NC(=O)Nc2ccc(Oc3ccnc4[nH]c(=O)cnc34)cc2F)n(-c2ccccc2)n1 [(a), 1-(2-fluoro-4-((3-oxo-3,4-dihydropyrido[2,3-b]pyrazin-8-yl)oxy)phenyl)-3-(3-methyl-1-phenyl-1H-pyrazol-5-yl)urea]",25 to 50,++,
"CSc1cc(Oc2ccnc(NC(=O)CO)c2)ccc1NC(=O)Nc1cc(C(C)(C)C)nn1-c1ccccc1 [(dq), N-(4-(4-(3-(3-(tert-butyl)-1-phenyl-1H-pyrazol-5-yl)ureido)-3-(methylthio)phenoxy)pyridin-2-yl)-2-hydroxyacetamide]",≥ 75,+,
"CSc1cc(Oc2ccnc3[nH]c(=O)cnc23)ccc1NC(=O)Nc1cc(C(C)(C)C)nn1-c1ccc(Cl)cc1 [(ao), 1-(3-(tert-butyl)-1-(4-chlorophenyl)-1H-pyrazol-5-yl)-3-(2-(methylthio)-4-((3-oxo-3,4-dihydropyrido[2,3-b]pyrazin-8-yl)oxy)phenyl)urea]",≥ 75,++,
"CSc1cc(Oc2ccnc3[nH]c(=O)cnc23)ccc1NC(=O)Nc1cc(C(C)(C)C)nn1-c1ccccn1 [(ar), 1-(3-(tert-butyl)-1-(pyridin-2-yl)-1H-pyrazol-5-yl)-3-(2-(methylthio)-4-((3-oxo-3,4-dihydropyrido[2,3-b]pyrazin-8-yl)oxy)phenyl)urea]",≥ 75,++,
"CSc1cc(Oc2ccnc3c2CCC(=O)N3)ccc1NC(=O)Nc1cc(C(C)(C)C)nn1-c1ccc(C)cc1 [(by), 1-(3-(tert-butyl)-1-(p-tolyl)-1H-pyrazol-5-yl)-3-(2-(methylthio)-4-((7-oxo-5,6,7,8-tetrahydro-1,8-naphthyridin-4-yl)oxy)phenyl)urea]",≥ 75,+,
"CC(C)(C)c1cc(NC(=O)Nc2ccc(Oc3ccnc4[nH]c(=O)cnc34)cc2F)n(CCN2CCOCC2)n1 [(k), 1-(3-(tert-butyl)-1-(2-morpholinoethyl)-1H-pyrazol-5-yl)-3-(2-fluoro-4-((3-oxo-3,4-dihydropyrido[2,3-b]pyrazin-8-yl)oxy)phenyl)urea]",50 to 75,++,
"CSc1cc(Oc2ccnc3[nH]c(=O)cnc23)ccc1NC(=O)Nc1nc(C(C)(C)C)cs1 [(ca), 1-(4-(tert-butyl)thiazol-2-yl)-3-(2-(methylthio)-4-((3-oxo-3,4-dihydropyrido[2,3-b]pyrazin-8-yl)oxy)phenyl)urea]",≥ 75,++,
"CSc1cc(Oc2ccnc3[nH]c(=O)cnc23)ccc1NC(=O)Nc1cc(C(C)(C)C)nn1CCN(C)C [(bg), 1-(3-(tert-butyl)-1-(2-(dimethylamino)ethyl)-1H-pyrazol-5-yl)-3-(2-(methylthio)-4-((3-oxo-3,4-dihydropyrido[2,3-b]pyrazin-8-yl)oxy)phenyl)urea]",≥ 75,++,≥ 5
"CC(C)(C)c1cc(NC(=O)Nc2ccc(Oc3ccnc4[nH]c(=O)cnc34)c(F)c2F)n(-c2ccccc2)n1 [(bo), 1-(3-(tert-butyl)-1-phenyl-1H-pyrazol-5-yl)-3-(2,3-difluoro-4-((3-oxo-3,4-dihydropyrido[2,3-b]pyrazin-8-yl)oxy)phenyl)urea]",≥ 75,+,
"CSc1cc(Oc2ccnc3[nH]c(=O)cnc23)ccc1NC(=O)Nc1cc(C(C)(C)C)nn1-c1ccc(OCCN2CCOCC2)cc1 [(cf), 1-(3-(tert-butyl)-1-(4-(2-morpholinoethoxy)phenyl)-1H-pyrazol-5-yl)-3-(2-(methylthio)-4-((3-oxo-3,4-dihydropyrido[2,3-b]pyrazin-8-yl)oxy)phenyl)urea]",≥ 75,−,
"CSc1cc(Oc2ccnc3[nH]c(=O)cnc23)ccc1NC(=O)Nc1cc(C(C)(C)C)nn1-c1ccc(CN(C)C)cc1 [(dp), 1-(3-(tert-butyl)-1-(4-((dimethylamino)methyl)phenyl)-1H-pyrazol-5-yl)-3-(2-(methylthio)-4-((3-oxo-3,4-dihydropyrido[2,3-b]pyrazin-8-yl)oxy)phenyl)urea]",≥ 75,+,
"CSc1cc(Oc2ccnc3[nH]c(=O)cnc23)ccc1NC(=O)Nc1cc(C(C)(C)C)nn1-c1ccc(OCCN2CCCCC2)cc1 [(ce), 1-(3-(tert-butyl)-1-(4-(2-(piperidin-1-yl)ethoxy)phenyl)-1H-pyrazol-5-yl)-3-(2-(methylthio)-4-((3-oxo-3,4-dihydropyrido[2,3-b]pyrazin-8-yl)oxy)phenyl)urea]",≥ 75,+,
"CC(C)(C)c1cc(NC(=O)Nc2ccc(Oc3ccc(F)cc3)cc2F)n(-c2ccccc2)n1 [(af), 1-(3-(tert-butyl)-1-phenyl-1H-pyrazol-5-yl)-3-(2-fluoro-4-(4-fluorophenoxy)phenyl)urea]",25 to 50,++,
